Data from ChEMBL document CHEMBL2396526, “Chromenylchalcones showing cytotoxicity on human colon cancer cell lines and in silico docking with aurora kinases” (Bioorg Med Chem, 2013).
The source made the active and inactive calls. The calls are words filed in the database; no cut-off is given here.

Legend:
[1] = system: HCT-116; test: Cell cycle arrest in human HCT116 cells assessed as accumulation at S phase at 20 uM after 24 hrs by propidium iodide staining-based flow cytometric analysis (reference value: 2.9%); format: functional
[2] = system: HCT-116; test: Cell cycle arrest in human HCT116 cells assessed as accumulation at G1 phase at 20 uM after 24 hrs by propidium iodide staining-based flow cytometric analysis (reference value: 2.9%); format: functional
[3] = system: HCT-116; test: Cell cycle arrest in human HCT116 cells assessed as accumulation at S phase at 20 uM after 48 hrs by propidium iodide staining-based flow cytometric analysis (reference value: 2.9%); format: functional
[4] = system: HCT-116; test: Cell cycle arrest in human HCT116 cells assessed as accumulation at G1 phase at 20 uM after 48 hrs by propidium iodide staining-based flow cytometric analysis (reference value: 2.9%); format: functional
[5] = system: HCT-116; test: Cell cycle arrest in human HCT116 cells assessed as accumulation at sub-G1 phase at 20 uM after 24 hrs by propidium iodide staining-based flow cytometric analysis (reference value: 2.9%); format: functional
[6] = system: HCT-116; test: Cell cycle arrest in human HCT116 cells assessed as accumulation at G1 phase at 20 uM after 12 hrs by propidium iodide staining-based flow cytometric analysis (reference value: 48.2%); format: functional
[7] = biological target: T1, Discoidin domain-containing receptor 2 (Homo sapiens) (UniProt Q16832); test: Inhibition of human DDR2
T1 sequence (whole entry): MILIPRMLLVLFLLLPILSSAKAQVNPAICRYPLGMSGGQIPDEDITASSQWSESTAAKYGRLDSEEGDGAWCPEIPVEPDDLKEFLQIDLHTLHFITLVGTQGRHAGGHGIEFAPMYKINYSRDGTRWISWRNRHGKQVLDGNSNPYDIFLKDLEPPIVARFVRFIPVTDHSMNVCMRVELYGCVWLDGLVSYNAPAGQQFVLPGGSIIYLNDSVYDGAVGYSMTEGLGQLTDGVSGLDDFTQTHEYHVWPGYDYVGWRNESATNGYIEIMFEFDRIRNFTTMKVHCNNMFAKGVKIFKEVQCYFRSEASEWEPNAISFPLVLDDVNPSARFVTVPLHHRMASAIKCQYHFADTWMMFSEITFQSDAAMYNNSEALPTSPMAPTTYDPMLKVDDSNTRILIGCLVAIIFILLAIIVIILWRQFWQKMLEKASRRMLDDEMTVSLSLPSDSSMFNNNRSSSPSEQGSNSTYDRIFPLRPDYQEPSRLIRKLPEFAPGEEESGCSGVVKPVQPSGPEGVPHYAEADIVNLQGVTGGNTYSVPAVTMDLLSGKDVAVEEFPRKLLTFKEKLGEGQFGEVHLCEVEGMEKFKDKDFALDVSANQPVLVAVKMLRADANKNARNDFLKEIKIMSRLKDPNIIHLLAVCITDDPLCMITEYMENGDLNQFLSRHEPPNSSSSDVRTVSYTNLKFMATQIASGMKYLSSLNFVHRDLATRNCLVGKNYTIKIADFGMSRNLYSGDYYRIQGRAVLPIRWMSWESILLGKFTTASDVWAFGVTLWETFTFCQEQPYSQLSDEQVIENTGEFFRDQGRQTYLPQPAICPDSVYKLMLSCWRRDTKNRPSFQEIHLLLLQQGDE

[8] = system: HCT-116; test: Induction of apoptosis in human HCT116 cells assessed as caspase-7 cleavage at 20 uM by Western blot analysis; format: functional, cell-based; conditions: TDE = time-dependent effect
[9] = system: HCT-116; test: Induction of apoptosis in human HCT116 cells assessed as viable cells at 20 uM after 24 hrs by annexin V-FITC/propidium iodide staining-based flow cytometric analysis (reference value: 71 %); format: functional; conditions: HCT-116, 24 h, read-out: Activity
[10] = system: HCT-116; test: Cell cycle arrest in human HCT116 cells assessed as accumulation at S phase at 20 uM after 12 hrs by propidium iodide staining-based flow cytometric analysis (reference value: 26.9%); format: functional
[11] = system: HCT-116; test: Cytotoxicity against human HCT116 cells assessed as cell survival at 0.5 to 5 uM after 7 days by crystal violet staining assay; format: functional, cell-based; conditions: HCT-116, 168 h
[12] = system: HCT-116; test: Cell cycle arrest in human HCT116 cells assessed as accumulation at G2/M phase at 20 uM after 48 hrs by propidium iodide staining-based flow cytometric analysis (reference value: 2.9%); format: functional
[13] = system: HCT-116; test: Induction of apoptosis in human HCT116 cells assessed as late apoptotic cells at 20 uM after 24 hrs by annexin V-FITC/propidium iodide staining-based flow cytometric analysis (reference value: 5%); format: functional
[14] = biological target: T2, Interleukin-1 receptor-associated kinase 4 (Homo sapiens) (UniProt Q9NWZ3); test: Inhibition of human IRAK4
T2 sequence (whole entry): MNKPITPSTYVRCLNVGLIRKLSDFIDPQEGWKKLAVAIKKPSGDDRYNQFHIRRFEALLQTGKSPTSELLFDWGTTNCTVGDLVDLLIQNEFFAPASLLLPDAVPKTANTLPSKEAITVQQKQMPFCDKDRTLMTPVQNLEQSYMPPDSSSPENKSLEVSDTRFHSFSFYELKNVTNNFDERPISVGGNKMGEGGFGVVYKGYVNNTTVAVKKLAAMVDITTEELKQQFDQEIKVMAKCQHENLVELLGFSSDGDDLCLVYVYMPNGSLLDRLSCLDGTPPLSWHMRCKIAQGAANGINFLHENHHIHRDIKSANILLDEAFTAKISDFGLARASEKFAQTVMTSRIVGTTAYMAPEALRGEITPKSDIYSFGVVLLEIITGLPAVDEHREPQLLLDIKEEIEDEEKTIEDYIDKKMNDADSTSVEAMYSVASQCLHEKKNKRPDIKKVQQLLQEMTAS

[15] = system: HCT-116; test: Cell cycle arrest in human HCT116 cells assessed as accumulation at sub-G1 phase at 20 uM after 48 hrs by propidium iodide staining-based flow cytometric analysis (reference value: 2.9%); format: functional
[16] = system: HCT-116; test: Cell cycle arrest in human HCT116 cells assessed as accumulation at sub-G1 phase at 20 uM after 12 hrs by propidium iodide staining-based flow cytometric analysis (reference value: 2.9%); format: functional
[17] = biological target: Vascular endothelial growth factor receptor 2 (Homo sapiens) (UniProt P35968); test: Inhibition of human KDR
Sequence of Vascular endothelial growth factor receptor 2 (Homo sapiens) (P35968 whole entry): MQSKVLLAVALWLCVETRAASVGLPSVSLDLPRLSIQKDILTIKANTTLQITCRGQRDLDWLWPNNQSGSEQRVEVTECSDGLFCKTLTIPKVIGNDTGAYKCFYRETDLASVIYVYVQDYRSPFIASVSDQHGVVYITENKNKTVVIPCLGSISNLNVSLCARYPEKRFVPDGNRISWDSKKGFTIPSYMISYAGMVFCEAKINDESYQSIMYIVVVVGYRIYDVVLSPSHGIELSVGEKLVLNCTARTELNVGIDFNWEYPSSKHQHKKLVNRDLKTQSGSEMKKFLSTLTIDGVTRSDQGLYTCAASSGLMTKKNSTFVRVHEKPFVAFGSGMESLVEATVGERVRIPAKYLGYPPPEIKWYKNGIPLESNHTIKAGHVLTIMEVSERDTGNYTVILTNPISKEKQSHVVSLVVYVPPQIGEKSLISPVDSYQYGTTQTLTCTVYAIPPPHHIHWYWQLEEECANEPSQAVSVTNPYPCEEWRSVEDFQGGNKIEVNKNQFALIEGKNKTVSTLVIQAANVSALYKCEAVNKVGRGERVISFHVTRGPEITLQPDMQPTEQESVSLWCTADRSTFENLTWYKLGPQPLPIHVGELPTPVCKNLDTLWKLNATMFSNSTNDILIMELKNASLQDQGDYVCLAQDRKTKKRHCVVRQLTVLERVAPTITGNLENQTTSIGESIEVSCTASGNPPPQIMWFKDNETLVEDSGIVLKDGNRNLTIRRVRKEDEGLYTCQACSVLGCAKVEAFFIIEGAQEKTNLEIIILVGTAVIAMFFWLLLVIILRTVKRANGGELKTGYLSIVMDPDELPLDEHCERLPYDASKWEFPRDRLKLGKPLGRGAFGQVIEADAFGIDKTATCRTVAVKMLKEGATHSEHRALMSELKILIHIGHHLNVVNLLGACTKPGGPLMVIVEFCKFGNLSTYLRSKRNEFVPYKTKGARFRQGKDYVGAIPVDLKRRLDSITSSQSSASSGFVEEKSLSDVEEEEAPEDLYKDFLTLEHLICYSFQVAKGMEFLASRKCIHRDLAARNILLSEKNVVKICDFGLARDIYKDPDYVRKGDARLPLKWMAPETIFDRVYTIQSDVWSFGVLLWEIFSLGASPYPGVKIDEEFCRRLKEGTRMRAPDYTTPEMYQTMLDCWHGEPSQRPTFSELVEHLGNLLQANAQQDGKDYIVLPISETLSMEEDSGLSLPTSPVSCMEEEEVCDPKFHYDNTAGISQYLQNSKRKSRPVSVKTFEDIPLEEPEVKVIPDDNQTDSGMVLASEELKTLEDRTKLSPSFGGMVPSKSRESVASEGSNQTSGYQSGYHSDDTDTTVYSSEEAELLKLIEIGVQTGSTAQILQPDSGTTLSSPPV

[18] = system: HCT-116; test: Cytotoxicity against human HCT116 cells assessed as cell survival at 5 to 40 uM after 7 days by crystal violet staining assay; format: functional, cell-based; conditions: HCT-116, 168 h
[19] = system: HCT-116; test: Induction of apoptosis in human HCT116 cells assessed as early apoptotic cells at 20 uM after 24 hrs by annexin V-FITC/propidium iodide staining-based flow cytometric analysis (reference value: 22%); format: functional
[20] = biological target: [Pyruvate dehydrogenase (acetyl-transferring)] kinase isozyme 1, mitochondrial (Homo sapiens) (UniProt Q15118); test: Inhibition of human PDK1
[21] = system: HCT-116; test: Induction of apoptosis in human HCT116 cells assessed as dead cells at 20 uM after 24 hrs by annexin V-FITC/propidium iodide staining-based flow cytometric analysis (reference value: 2%); format: functional
[22] = system: HCT-116; test: Induction of apoptosis in human HCT116 cells assessed as DNA content at G1 phase at 20 uM after 24 hrs by annexin V-FITC/propidium iodide staining-based flow cytometric analysis (reference value: 8%); format: functional
[23] = system: HCT-116; test: Cytotoxicity against human HCT116 cells assessed as decrease in cell viability at > 20 uM after 24 hrs by CCK8 assay; format: functional, cell-based

COc1ccc2c(c1)C=C(C(=O)/C=C/c1c(OC)cc(OC)cc1OC)CO2
Activity [1]: 13.6% | Activity [2]: 23.1% | Activity [3]: 13.2% | Activity [4]: 29.5% | Activity [5]: 35.3% | Activity [6]: 18.9% | inhibition [7]: inactive | Activity [8]: tde | viability at 20 µM [9]: 0% | Activity [10]: 19.6% | IC50 [11]: 96.7 nM | Activity [12]: 8.4% | Activity [13]: 14% | inhibition [14]: inactive | Activity [15]: 45.3% | Activity [16]: 15.1% | inhibition [17]: inactive | IC50 [18]: 93 nM | Activity [19]: 86% | inhibition [20]: inactive | Activity [21]: 0% | Activity [22]: 99% | Activity [23]: Active
